In patent US6150359A, “Naphthyridinones for inhibiting protein tyrosine kinase and cell cycle kinase mediated cellular proliferation” (Warner-Lambert Company, priority 2000, dated 2000) one finds IC50 data, which are given here for four compounds.

The IC50 is the concentration that inhibits the measured activity by half.

Each structure is given as a SMILES string. Where only a bound is given, the exact number is not on record here.

The target of one assay is T1, PDGF receptor (Rattus norvegicus, UniProt Q05030).
T1 construct: endogenous in cells; host or cells: rat aorta smooth muscle cells, primary culture, passages 5 to 20
T1 sequence (Q05030 32-1097): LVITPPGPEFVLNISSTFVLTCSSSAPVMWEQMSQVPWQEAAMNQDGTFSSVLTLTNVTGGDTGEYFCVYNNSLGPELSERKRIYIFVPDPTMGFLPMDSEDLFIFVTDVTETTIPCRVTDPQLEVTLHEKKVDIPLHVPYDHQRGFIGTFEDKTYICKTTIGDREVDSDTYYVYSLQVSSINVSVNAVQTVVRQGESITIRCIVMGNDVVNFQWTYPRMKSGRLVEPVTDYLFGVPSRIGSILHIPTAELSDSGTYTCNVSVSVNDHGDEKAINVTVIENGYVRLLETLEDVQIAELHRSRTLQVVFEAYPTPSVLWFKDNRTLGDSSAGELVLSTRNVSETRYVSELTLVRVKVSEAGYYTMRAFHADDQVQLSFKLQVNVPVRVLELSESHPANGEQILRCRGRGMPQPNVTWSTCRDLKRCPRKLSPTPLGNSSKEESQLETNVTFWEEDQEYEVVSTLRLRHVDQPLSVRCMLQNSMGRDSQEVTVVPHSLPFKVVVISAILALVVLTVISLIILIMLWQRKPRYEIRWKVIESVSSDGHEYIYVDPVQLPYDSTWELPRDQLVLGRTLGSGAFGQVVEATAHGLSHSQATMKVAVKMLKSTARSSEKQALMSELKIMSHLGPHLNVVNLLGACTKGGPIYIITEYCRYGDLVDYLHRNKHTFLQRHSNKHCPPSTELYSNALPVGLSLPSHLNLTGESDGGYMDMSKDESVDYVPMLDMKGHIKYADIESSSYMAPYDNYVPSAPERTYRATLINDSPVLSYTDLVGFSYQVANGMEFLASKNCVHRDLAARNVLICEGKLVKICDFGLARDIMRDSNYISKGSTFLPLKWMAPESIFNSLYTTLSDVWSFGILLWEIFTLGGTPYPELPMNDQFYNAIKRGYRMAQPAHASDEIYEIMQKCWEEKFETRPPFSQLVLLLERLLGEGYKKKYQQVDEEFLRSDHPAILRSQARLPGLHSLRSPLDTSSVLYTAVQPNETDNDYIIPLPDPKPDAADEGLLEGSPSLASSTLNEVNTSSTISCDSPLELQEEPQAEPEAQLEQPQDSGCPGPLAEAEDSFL
Description: PDGF Receptor Autophosphorylation Assay in rat aorta smooth muscle cells. It counts as cell-based. The conditions noted are these: PDGF-BB 30 ng/mL, 5 minutes, 2 hours preincubation, read-out: Inhibition of PDGF-Stimulated Receptor Autophosphorylation IC50. The method, then:
PDGF Receptor Autophosphorylation Assay. Rat aorta smooth muscle cells (RASMC.) are isolated from the thoracic aorta of rats and explanted according to the method of Ross, J. Cell. Biol., 1971;30:172-186. Cells are grown in Dulbecco's modified Eagle's medium (DMEM, Gibco) containing 10% fetal calf serum (FBS, Hyclone, Logan, Utah), 1% glutamine (Gibco), and 1% penicillin/streptomycin (Gibco). Cells are identified as smooth muscle cells by their "hill and valley" growth pattern and by fluorescent staining with a monoclonal antibody specific for SMC […] (Sigma). RASMC are used between passages 5 and 20 for all experiments. Test compounds are prepared in dimethylsulfoxide (DMSO) in order to achieve consistency in the vehicle and to ensure compound solubility. Appropriate DMSO controls are simultaneously evaluated with the test compounds.
Rat aortic smooth muscle cells are grown to confluency in 100 mm dishes. Growth medium is removed and replaced with serum-free medium, and cells are incubated at 37° C. for an additional 24 hours. Test compounds are then added directly to the medium and cells incubated for an additional 2 hours. After 2 hours, PDGF-BB is added at a final concentration of 30 ng/mL for 5 minutes at 37° C. to stimulate autophosphorylation of PDGF receptors. Following growth factor treatment, the medium is removed, and cells are washed with cold phosphate-buffered saline and immediately lysed with 1 mL of lysis buffer (50 mM Hepes, pH 7.5, 150 mM NaCl, 10% glycerol, 1% Triton-X 100, 1 mM EDTA, 1 mM EGTA, 50 mM NaF, 1 mM sodium orthovanadate, 30 mM p-nitrophenyl phosphate, 10 mM sodium pyrophosphate, 1 mM phenylmethyl sulfonyl fluoride, 10 μg/mL aprotinin, and 10 μg/mL leupeptin). Lysates are centrifuged at 10,000×g for 10 minutes. Supernatants are incubated with 10 μL of rabbit anti-human PDGF type AB receptor antibody (1:1000) for 2 hours. Following the incubation, protein-A-sepharose beads are added for 2 hours with continuous mixing, and immune complexes bound to the beads washed four times with 1 mL lysis wash buffer. Immune complexes are solubilized in 40 μL of Laemmli sample buffer and electrophoresed in 8% to 16% SDS polyacrylamide gels. […] Following extensive washing with PBS-0.2% tween-20, the blots are incubated with horseradish peroxidase labeled goat anti-mouse IgG (1:5000; Bio-Rad Inc., Hercules, Calif.), and protein levels are detected by enhanced chemiluminescence (ECL) detection system according to the instructions of the supplier (Amersham Inc., Arlington Heights, Ill.). The density of the protein bands are determined using NIH Image software (v. 1.56) and IC50 values are generated from the densitometric data.

Assay [1] concerns HT-29 cells. Kind of assay: Human Colon Carcinoma Growth Delay Assay, HT-29. Particulars: 72 h, HT-29, 3 days. The assay is classed as cell-based. The procedure: Human Colon Carcinoma Growth Delay Assay. Human colon carcinoma cells are seeded into 96-well tissue culture plates in a final volume of 180 μL of 10% fetal bovine serum containing growth media and allowed to incubate overnight (37° C., 5% CO2, 95% air). Cells of the SW-620 cell line are seeded at 1.0-1.5×10^4 cells per well. Cells of the HCT-8 and HT-29 cell lines are seeded at 2-4×10^3 cells per well. Serially diluted drug solutions are prepared in growth medium at 10 times concentration; 20 μL of these solutions are added to duplicate wells and incubated with the cells for 3 days in a cell culture incubator. At the end of the incubation period, cells are fixed with 100 μL per well of 10% trichloroacetic acid after removing the drug/culture medium. The plates are washed five times with tap water and stained with 100 μL per well of 0.075% sulfrhodamine B in 1% acetic acid for 10 minutes. The plates are rinsed four times and allowed to air dry. The stain in the wells are solubilized by the addition of 10 mM unbuffered Tris base and the absorbance read using a microtiter plate optical reader. Inhibition of cell growth is calculated from absorbance data of the treated cells compared to untreated control cells.

The next assay deals with Protein kinase C (PKC). Description: Protein kinase C (PKC) assay. The conditions noted are these: rat brain preparation. It counts as biochemical. The method, then:
Other Kinases. c-Src kinase is purified from baculovirus infected insect cell lysates using an antipeptide monoclonal antibody directed against the N-terminal 2-17 amino acids as described previously by Fry, et al., Anticancer Drug Design, 1994;9:331-351. Protein kinase C (PKC.) is obtained as a rat brain preparation from Promega.
Other Kinases. An assay using the intracellular kinase domains of insulin receptor (INSr) is performed as described for the EGF receptor except that 10 mM manganese chloride is included in the reaction. The PKC assay is performed as previously described by Martiny-Baron, et al., J. Biol. Chem., 1993;268:9194-9197.

In assay [2] the test system is HT-29 cells. Kind of assay: Human Colon Carcinoma Clonogenic Assay, HT-29. Particulars: HT-29, 2 days with drug, colonies after approximately 2 weeks. The assay is classed as cell-based. The method, then: Human Colon Carcinoma Clonozenic Assay. Human colon carcinoma cells are seeded into 6 well plates in volumes of 3 mL and allowed to incubate overnight (37° C., 5% CO2, 95% air). SW-620 cells are seeded at 7×10^5 per well; HCT-8 cells are seeded at 5×10^5 per well; HT-29 cells are seeded at 4×10^5 cells per well. Serially diluted drugs are prepared at 200 times the final concentration, and 15 μL are added to each of duplicate wells. Cells are incubated with drug for 2 days, rinsed once with 1 mL of trypsin+EDTA, and then trypsinized with the same trypsin solution. After trituration and centrifugation at 750×g for 3 minutes, the cells are suspended in serum-free growth medium and counted using an electronic particle counter. An agarose mixture appropriate for the cloning of each cell line is made using 10% fetal bovine serum in growth medium (SW-620-0.35% agarose, HCT-8 and HT-29-0.4% agarose). […] One; milliliter of each of these cell suspensions is added to duplicate wells of 6 well plates previously prepared with 10% serum/growth medium/1% agarose plugs. The cells in these plates are incubated for approximately 2 weeks in the incubator and stained with 1 mL per well of 1 mg/mL iodonitrotetrazolium violet stain. The visible colonies are counted with an electronic optical colony counter and the clonogenicity of treated cells calculated in comparison to untreated control cells.

With `CCN(CC)CCCCNc1cc2c(cn1)cc(-c1c(Cl)cccc1Cl)c(=O)n2C` [Example F, 3-(2,6-dichlorophenyl)-7-[4-(diethylamino)butylamino]-1-methyl-1H-[1,6]naphthyridin-2-one], the IC50 at PDGF receptor was 490 nM; in the assay on HT-29 cells [1], 1500 nM; on Protein kinase C (PKC), > 50 µM; in the assay on HT-29 cells [2], > 5 µM.
For `CN1CCN(CCCNc2cc3c(cn2)cc(-c2c(Cl)cccc2Cl)c(=O)n3C)CC1` [Example H, 3-(2,6-dichlorophenyl)-1-methyl-7-[3-(4-methylpiperazin-1-yl)propylamino]-1H-[1,6]naphthyridin-2-one] the same measures were > 10000 nM, 2200 nM, < 50 µM and > 5 µM.
The like results for `CCN(CC)CCOc1ccc(Nc2cc3c(cn2)cc(-c2c(Cl)cccc2Cl)c(=O)n3C)cc1` [Example P, 3-(2,6-dichlorophenyl)-7-[(4-(2-(diethylamino)ethoxy)phenyl)amino]-1-methyl-1H-[1,6]naphthyridin-2-one] were, in that order, 230 nM, 800 nM, > 50 µM and > 5 µM.
`CN1CCN(CCOc2ccc(Nc3cc4c(cn3)cc(-c3c(Cl)cccc3Cl)c(=O)n4C)cc2)CC1` [Example S, 3-(2,6-dichlorophenyl)-1-methyl-7-[(4-(2-(4-methylpiperazin-1-yl)ethoxy)phenyl)amino]-1H-[1,6]naphthyridin-2-one]: the values for the IC50 at PDGF receptor and in the assay with HT-29 cells [1] were 810 nM and 900 nM, respectively.
